Laboratory results: patent US12209081B2 (Katholieke Universiteit Leuven, priority 2020, dated 2025)

Biological target: mouse TRPM3α2 (mTRPM3) ion channel (Mus musculus (Mouse), UniProt J9SQF3)
Experiment: TRPM3 ion channel driven Ca2+ uptake, Fluo-4 AM assay, mTRPM3alpha2 overexpressing flip-in HEK293 cells stimulated with pregnenolone sulfate
Format: cell-based
Conditions: PS (50 μM) stimulated, cpd 001-199
Method in brief: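 Read-out is Ca2+ influx via Fluo-4 AM fluorescence at 485/535 nm, taken right after seeding ~2000 cells/well onto compound with 50 μM PS. Inhibition computed from RFU between vehicle-stimulated and positive-control-inhibitor wells; cells were mTRPM3α2-overexpressing flip-in HEK293.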

mouse TRPM3α2 (mTRPM3) ion channel, sequence (J9SQF3 other isoform, or with tags, fused parts or gaps): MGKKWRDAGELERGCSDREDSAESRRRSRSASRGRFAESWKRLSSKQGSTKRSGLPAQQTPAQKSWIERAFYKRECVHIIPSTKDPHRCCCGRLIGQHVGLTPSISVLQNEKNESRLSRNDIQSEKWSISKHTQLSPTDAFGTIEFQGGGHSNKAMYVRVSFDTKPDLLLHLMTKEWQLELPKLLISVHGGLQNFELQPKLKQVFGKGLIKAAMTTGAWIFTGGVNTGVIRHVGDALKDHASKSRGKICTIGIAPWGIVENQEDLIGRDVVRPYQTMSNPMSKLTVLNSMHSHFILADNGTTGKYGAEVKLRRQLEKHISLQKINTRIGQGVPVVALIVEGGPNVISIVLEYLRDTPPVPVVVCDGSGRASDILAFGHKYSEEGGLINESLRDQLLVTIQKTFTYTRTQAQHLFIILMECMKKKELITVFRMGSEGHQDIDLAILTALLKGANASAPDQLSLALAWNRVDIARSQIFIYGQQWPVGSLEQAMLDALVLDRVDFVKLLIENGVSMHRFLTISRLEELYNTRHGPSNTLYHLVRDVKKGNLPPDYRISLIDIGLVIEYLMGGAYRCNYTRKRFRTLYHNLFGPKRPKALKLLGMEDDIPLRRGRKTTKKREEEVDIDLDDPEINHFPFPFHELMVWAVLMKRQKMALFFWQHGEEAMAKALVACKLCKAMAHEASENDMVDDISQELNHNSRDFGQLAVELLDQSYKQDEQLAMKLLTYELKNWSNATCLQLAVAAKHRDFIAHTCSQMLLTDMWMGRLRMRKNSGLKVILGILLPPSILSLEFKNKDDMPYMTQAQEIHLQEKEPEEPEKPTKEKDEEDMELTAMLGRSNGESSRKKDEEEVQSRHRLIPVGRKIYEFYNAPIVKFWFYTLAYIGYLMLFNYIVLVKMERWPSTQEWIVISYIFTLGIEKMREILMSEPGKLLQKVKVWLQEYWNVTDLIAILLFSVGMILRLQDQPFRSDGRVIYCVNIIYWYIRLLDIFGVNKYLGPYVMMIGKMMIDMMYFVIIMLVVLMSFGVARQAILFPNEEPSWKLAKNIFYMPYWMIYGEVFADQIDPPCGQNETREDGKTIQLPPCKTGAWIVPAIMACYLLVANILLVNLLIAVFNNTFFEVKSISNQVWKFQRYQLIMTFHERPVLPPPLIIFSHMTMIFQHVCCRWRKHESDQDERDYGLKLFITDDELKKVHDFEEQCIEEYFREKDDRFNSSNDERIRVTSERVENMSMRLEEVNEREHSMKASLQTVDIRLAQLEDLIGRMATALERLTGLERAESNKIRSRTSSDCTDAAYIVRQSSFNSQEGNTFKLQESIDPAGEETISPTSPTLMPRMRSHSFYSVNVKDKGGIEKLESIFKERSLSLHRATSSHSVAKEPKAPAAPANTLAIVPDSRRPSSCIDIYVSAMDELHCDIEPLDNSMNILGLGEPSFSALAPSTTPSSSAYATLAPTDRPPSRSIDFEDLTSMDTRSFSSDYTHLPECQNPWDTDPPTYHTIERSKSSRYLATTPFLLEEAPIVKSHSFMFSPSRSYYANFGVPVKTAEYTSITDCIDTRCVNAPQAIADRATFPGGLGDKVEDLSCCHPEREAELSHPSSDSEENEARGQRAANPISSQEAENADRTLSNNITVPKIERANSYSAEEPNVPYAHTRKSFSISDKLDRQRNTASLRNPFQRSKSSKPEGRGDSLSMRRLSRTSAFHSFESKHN

| IC50 [nM] | SMILES |
| --- | --- |
| > 20000 | Cc1oc2ccc(OCc3nc(C(F)(F)F)cs3)cc2c1C(=O)NC1CCOC1 (centres unmarked) [compound 057, 2-methyl-N-(tetrahydrofuran-3-yl)-5-((4-(trifluoromethyl)thiazol-2-yl)methoxy)benzofuran-3-carboxamide] |
| < 1000 | COc1ncccc1COc1ccc2oc(C)c(C(=O)NC3(CO)CCOCC3)c2c1 [compound 058, N-(4-(hydroxymethyl)tetrahydro-2H-pyran-4-yl)-5-((2-methoxypyridin-3-yl)methoxy)-2-methyl-benzofuran-3-carboxamide] |
| > 20000 | Cc1oc2ccc(OCc3ccc4cnccc4c3)cc2c1C(=O)NC1CCN(C)CC1 [compound 061, 5-(isoquinolin-6-ylmethoxy)-2-methyl-N-(1-methylpiperidin-4-yl)benzofuran-3-carboxamide] |
| < 1000 | Cc1oc2ccc(OCc3cccnc3C(F)(F)F)cc2c1C(=O)NC1CCNC1=O (centres unmarked) [compound 064, 2-methyl-N-(2-oxopyrrolidin-3-yl)-5-((2-(trifluoromethyl)pyridin-3-yl)methoxy)benzofuran-3-carboxamide] |
| < 1000 | Cc1oc2ccc(OCc3cccnc3Cl)cc2c1C(=O)NC1CCNCC1(F)F (centres unmarked) [compound 067, 5-((2-chloropyridin-3-yl)methoxy)-N-(3,3-difluoropiperidin-4-yl)-2-methylbenzofuran-3-carboxamide] |
| < 1000 | Cc1oc2ccc(OCc3cnccc3Cl)cc2c1C(=O)NC1CCNCC1(F)F (centres unmarked) [compound 068, 5-((4-chloropyridin-3-yl)methoxy)-N-(3,3-difluoropiperidin-4-yl)-2-methylbenzofuran-3-carboxamide] |
| < 1000 | Cc1oc2ccc(OCc3ccc4nccn4c3)cc2c1C(=O)NC1CCNCC1(F)F (centres unmarked) [compound 070, N-(3,3-difluoropiperidin-4-yl)-5-(imidazo[1,2-a]pyridin-6-ylmethoxy)-2-methylbenzofuran-3-carboxamide] |
| < 1000 | Cc1oc2ccc(OCc3cccc(N(C)C)n3)cc2c1C(=O)NC1CCNCC1(F)F (centres unmarked) [compound 071, N-(3,3-difluoropiperidin-4-yl)-5-((6-(dimethylamino)pyridin-2-yl)methoxy)-2-methylbenzofuran-3-carboxamide] |
| < 1000 | Cc1oc2ccc(OCc3cccnc3C(F)(F)F)cc2c1C(=O)NC1(CO)CCOCC1 [compound 072, N-(4-(hydroxymethyl)tetrahydro-2H-pyran-4-yl)-2-methyl-5-((2-(trifluoromethyl)pyridin-3-yl) -methoxy)benzofuran-3-carboxamide] |
| > 20000 | Cc1oc2ccc(OCc3cncc(C(F)(F)F)c3)cc2c1C(=O)NC1CCNCC1(F)F (centres unmarked) [compound 075, N-(3,3-difluoropiperidin-4-yl)-2-methyl-5-((5-(trifluoromethyl)pyridin-3-yl)methoxy)benzofuran-3-carboxamide] |
| > 20000 | Cc1oc2ccc(OCc3cncc(C(F)(F)F)c3)cc2c1C(=O)N[C@H]1CCN(C(=O)OC(C)(C)C)C1 [compound 077, tert-butyl (S)-3-(2-methyl-5-((5-(trifluoromethyl)pyridin-3-yl)methoxy)benzofuran-3-carboxamido)pyrrolidine-1-carboxylate] |
| < 1000 | Cc1ncsc1COc1ccc2oc(C)c(C(=O)NC(C)(C)CO)c2c1 [compound 104, N-(1-hydroxy-2-methylpropan-2-yl)-2-methyl-5-((4-methylthiazol-5-yl)methoxy)benzofuran-3-carboxamide] |
| < 1000 | Cc1ncsc1COc1ccc2oc(C)c(C(=O)NC3(CO)CCC3)c2c1 [compound 107, N-(1-(hydroxymethyl)cyclobutyl)-2-methyl-5-((4-methylthiazol-5-yl)methoxy)benzofuran-3-carboxamide] |
| < 1000 | Cc1ncsc1COc1ccc2oc(C)c(C(=O)NC3(CN(C)C)CCC3)c2c1 [compound 108, N-(1-((dimethylamino)methyl)cyclobutyl)-2-methyl-5-((4-methylthiazol-5-yl)methoxy)benzofuran-3-carboxamide] |
